Test results from ChEMBL document CHEMBL1201862, “PubChem BioAssay data set” (2004).
Active and inactive are the calls of the source.

Columns and labels:
[1] = off-target signal loss in HeLa-CEM21 co-culture – HeLa F-luc CTL cells, cherry-picked, counter-screen for HIV-1 Env fusion inhibitor project, dose response (AID 652040); assay type: functional, cell-based;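 note: potency for signal decrease marking cytotoxic or nonspecific inhibition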
Paired box protein Pax-8 = Paired box protein Pax-8 (Homo sapiens, UniProt Q06710); assay: inhibitors of PAX8-driven TPO luciferase reporter, dose response, RMG-I cells, cherry-pick (AID 687027); assay type: functional, cell-based;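 note: luciferase reporter driven by Pax8 target thyroperoxidase promoter measured by SteadyGlo luminescence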
Paired box protein Pax-8, sequence (Q06710 whole entry): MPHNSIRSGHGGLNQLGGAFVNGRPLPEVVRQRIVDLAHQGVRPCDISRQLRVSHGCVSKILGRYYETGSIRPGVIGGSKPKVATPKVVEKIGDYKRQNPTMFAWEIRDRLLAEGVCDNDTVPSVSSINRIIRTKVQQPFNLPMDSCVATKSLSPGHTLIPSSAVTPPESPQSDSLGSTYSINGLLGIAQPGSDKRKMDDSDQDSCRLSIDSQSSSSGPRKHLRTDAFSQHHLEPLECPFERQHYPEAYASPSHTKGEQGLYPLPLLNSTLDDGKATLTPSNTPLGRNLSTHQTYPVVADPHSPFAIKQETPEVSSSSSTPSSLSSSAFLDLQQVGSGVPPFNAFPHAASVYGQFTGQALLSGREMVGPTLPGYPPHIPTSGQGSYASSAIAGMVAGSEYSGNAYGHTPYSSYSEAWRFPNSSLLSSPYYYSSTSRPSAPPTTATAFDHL

[2] = T. cruzi growth inhibition in host cells, dose response, cell-based, plate reader, dry powder, set 2 (AID 652275); assay type: functional
[3] = HeLa cell cytotoxicity, dose response, cytotoxicity control for MgcRacGAP inhibitor project (AID 624300); assay type: functional
[4] = target: T1, Rac GTPase-activating protein 1 (Homo sapiens, UniProt Q9H0H5); assay: MgcRacGAP GTPase-activating activity inhibitors, confirmation, biochemical, ADP Hunter fluorescence, primary and confirmatory (AID 624330); assay type: functional
T1 sequence (Q9H0H5 whole entry): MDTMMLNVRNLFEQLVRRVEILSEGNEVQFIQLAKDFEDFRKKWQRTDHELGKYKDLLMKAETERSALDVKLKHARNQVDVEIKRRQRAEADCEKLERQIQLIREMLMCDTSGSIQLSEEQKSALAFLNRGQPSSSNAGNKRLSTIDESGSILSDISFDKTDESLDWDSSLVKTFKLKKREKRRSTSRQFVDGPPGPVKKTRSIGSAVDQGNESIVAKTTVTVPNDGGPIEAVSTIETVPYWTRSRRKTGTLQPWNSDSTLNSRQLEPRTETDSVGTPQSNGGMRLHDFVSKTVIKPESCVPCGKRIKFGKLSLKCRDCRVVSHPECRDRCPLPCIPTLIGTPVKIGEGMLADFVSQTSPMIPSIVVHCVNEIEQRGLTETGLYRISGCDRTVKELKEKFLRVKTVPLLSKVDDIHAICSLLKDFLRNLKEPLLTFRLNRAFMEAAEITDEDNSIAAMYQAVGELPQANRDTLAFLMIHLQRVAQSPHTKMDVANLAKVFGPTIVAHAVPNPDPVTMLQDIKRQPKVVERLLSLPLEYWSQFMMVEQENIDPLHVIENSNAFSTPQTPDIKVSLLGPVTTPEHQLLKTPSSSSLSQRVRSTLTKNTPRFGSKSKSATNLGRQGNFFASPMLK

[5] = Luminescence Cell-Based Dose Confirmation HTS to Identify Activators of 5'UTR Stem-Loop Driven Alpha-Synuclein mRNA Translation in H4 Neuroglioblastoma Cells. [Related pubchem assays: 1829 (Project Summary), 1814 (Primary HTS)]; assay type: functional
[6] = Luminescence Cell-Based Dose Response HTS to Identify Activators of Luciferase Translation or Activity in H4 […] Cells. [Related pubchem assays: 1829 (Project Summary), 1814 (Primary HTS)]; assay type: functional
H4 = assay: Luminescence Cell-Based Dose Response HTS to Identify Activators of 5'UTR Stem-Loop Driven Prion Protein mRNA Translation in H4 Neuroglioblastoma Cells. [Related pubchem assays: 1829 (Project Summary), 1814 (Primary HTS)]; assay type: functional; conditions: Homo sapiens
[7] = inhibitors of clade B AD8 Env fusion, dose response, cell-based, cherry-pick (AID 652062); assay type: functional;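 note: luciferase signal from cell-cell fusion driven by HIV-1 clade B AD8 Env; potency is for inhibitors of fusion seen as a drop in luminescence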
[8] = inhibitors of HIV Env-driven cell fusion, dose response, cherry-pick (AID 652057); assay type: functional, cell-based
[9] = ZM109 Env clade C HIV-1 fusion inhibitors, dose response, HeLa effector, CEM target cells, luciferase, cherry-pick (AID 652058); assay type: functional, cell-based
[10] = target: T2, Sentrin-specific protease 6 (Homo sapiens, UniProt Q9GZR1); assay type: functional;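 note: Luminescence-based dose-response confirmatory assay of SENP6 inhibition, following up an ultra-high-throughput screen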
T2 sequence (Q9GZR1 whole entry): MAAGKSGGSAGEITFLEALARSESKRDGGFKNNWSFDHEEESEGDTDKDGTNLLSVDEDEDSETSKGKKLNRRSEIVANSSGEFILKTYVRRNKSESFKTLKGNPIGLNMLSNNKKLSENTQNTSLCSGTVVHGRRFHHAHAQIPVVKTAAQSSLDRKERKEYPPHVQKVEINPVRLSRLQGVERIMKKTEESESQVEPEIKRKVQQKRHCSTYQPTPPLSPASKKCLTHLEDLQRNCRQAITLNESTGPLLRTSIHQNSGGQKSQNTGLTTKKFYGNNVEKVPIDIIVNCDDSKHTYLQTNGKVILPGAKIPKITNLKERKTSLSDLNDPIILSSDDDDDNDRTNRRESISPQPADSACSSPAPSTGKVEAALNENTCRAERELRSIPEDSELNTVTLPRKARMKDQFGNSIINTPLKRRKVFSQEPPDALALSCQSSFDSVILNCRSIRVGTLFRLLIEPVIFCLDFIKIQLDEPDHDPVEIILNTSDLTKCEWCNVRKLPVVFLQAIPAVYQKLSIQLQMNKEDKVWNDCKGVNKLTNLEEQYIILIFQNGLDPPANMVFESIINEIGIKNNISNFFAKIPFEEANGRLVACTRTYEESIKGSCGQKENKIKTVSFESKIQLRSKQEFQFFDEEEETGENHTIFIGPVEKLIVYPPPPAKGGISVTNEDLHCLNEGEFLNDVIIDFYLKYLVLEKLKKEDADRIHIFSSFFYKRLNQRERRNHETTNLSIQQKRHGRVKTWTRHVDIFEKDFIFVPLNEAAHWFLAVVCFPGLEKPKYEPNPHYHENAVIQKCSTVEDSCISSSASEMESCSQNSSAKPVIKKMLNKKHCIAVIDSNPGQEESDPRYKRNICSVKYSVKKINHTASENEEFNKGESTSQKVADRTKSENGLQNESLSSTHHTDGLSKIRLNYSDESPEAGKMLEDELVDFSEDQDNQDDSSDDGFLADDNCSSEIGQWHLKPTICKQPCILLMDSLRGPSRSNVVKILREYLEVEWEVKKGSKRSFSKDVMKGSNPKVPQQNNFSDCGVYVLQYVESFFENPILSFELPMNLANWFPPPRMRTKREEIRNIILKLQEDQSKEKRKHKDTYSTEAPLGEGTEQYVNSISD

Caspase-3 = target: T3, Caspase-3 (Homo sapiens, UniProt P42574); assay type: functional;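 note: Dose-response selectivity test against caspase-3 for candidate inhibitors of sentrin-specific proteases (SENPs)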
T3 sequence (P42574 whole entry): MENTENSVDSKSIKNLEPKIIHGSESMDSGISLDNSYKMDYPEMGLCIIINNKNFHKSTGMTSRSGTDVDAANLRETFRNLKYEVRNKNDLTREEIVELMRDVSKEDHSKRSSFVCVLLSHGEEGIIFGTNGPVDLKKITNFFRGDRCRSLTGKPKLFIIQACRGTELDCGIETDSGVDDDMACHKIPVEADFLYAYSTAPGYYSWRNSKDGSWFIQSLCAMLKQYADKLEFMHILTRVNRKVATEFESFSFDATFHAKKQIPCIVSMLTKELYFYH

[11] = tested on: Streptococcus sp. 'group A'; assay: growth inhibition of control SK(-) GAS strain, dose response, counter-screen for streptokinase expression inhibitor project, luminescence, kanamycin, BacTiterGlo, confirmation (AID 1900); assay type: functional, organism-based
Streptokinase A = target: T4, Streptokinase A (Streptococcus pyogenes serotype M1, UniProt P10520); assay: S. pyogenes streptokinase expression inhibitors, potency, dose response, plasminogen activation absorbance, OD405 (AID 1914); assay type: functional, Streptococcus pyogenes M1 GAS;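 note: secreted streptokinase activity via plasminogen activation per viability signal from cell pellet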
T4 sequence (P10520 whole entry): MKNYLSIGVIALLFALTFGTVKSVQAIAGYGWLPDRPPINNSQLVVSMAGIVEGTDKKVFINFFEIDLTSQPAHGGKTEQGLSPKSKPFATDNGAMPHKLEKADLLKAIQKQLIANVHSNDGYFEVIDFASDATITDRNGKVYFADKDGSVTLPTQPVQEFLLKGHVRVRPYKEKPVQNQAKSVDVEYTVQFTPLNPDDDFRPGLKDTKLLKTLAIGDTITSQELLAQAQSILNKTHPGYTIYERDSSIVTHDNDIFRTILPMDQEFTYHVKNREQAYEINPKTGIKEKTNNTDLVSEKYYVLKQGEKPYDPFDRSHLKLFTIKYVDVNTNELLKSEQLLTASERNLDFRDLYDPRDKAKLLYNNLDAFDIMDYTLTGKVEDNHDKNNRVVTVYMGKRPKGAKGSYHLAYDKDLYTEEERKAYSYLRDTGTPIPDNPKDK

[12] = target: T5, Sentrin-specific protease 8 (Homo sapiens, UniProt Q96LD8); assay type: functional;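 note: luminescence read-out of SENP8 inhibition, dose-response confirmation following an ultra-high-throughput screen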
T5 sequence (Q96LD8 whole entry): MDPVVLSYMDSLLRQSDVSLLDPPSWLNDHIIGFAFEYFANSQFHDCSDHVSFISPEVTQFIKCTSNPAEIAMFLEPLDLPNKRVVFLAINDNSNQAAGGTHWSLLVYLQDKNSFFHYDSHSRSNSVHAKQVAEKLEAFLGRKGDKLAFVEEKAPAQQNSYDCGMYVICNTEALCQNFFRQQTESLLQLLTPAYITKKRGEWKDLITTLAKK

[13] = target: T6, Sentrin-specific protease 7 (Homo sapiens, UniProt Q9BQF6); assay type: functional;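 note: Luminescence-based dose-response confirmation of ultra-high-throughput screening hits, measuring inhibition of SENP7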
T6 sequence (Q9BQF6 whole entry): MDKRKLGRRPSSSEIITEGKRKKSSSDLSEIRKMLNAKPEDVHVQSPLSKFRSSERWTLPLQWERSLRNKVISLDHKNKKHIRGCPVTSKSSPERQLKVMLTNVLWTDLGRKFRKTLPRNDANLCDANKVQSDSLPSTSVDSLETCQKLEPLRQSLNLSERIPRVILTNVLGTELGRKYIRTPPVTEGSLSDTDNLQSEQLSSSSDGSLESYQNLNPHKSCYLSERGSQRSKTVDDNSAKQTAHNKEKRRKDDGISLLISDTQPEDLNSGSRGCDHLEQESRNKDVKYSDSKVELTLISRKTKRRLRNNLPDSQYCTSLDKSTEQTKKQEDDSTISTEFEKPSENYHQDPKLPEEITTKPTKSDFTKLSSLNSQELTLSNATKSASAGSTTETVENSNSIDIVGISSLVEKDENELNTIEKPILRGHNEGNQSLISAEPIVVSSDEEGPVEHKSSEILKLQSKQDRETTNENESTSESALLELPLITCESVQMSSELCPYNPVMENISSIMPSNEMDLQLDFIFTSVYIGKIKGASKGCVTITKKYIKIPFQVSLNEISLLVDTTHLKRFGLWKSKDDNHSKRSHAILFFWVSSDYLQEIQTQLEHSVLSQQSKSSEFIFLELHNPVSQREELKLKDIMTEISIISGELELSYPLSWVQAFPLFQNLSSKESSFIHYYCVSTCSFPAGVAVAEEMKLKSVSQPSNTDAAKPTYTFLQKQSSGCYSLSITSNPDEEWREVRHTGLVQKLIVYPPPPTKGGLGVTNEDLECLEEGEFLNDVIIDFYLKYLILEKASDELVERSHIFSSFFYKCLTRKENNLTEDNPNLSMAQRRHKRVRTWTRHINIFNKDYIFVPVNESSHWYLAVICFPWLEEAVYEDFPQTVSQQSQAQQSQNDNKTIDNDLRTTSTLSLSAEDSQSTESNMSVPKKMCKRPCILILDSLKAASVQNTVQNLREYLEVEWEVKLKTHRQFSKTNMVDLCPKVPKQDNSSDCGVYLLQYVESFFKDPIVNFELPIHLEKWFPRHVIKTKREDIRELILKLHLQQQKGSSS

Streptococcus = assay: Group A Streptococcus viability loss, dose response, counter-screen for streptokinase expression inhibitor project, luminescence, BacTiterGlo (AID 1915); assay type: functional, organism-based;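 note: potency for reduction of bacterial viability or growth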

Cc1ccc2c(c1)c1c3n2CCN(CC(N)=O)C3CCC1 (stereo unspecified)
AC50 [1]: 7.87 µM (active) | AC50 (Paired box protein Pax-8): 6.82 µM (active)

CN(C)CC#Cc1cccc(-c2nc(C(=O)N3CCN(Cc4ccccc4)CC3)cc3c2[C@H](CCO)N([S+]([O-])C(C)(C)C)C3)c1 (stereo partly specified)
AC50 [2]: 6.1 µM (active)

COc1cc(C(C[N+](=O)[O-])c2c(N)n(C)c(=O)n(C)c2=O)ccc1O (stereo unspecified)
CC50 [3]: 80.4 µM (active) | IC50 [4]: 111 µM (active)

Cc1cccc(C(=N)NOC(=O)N2c3ccccc3Sc3ccccc32)c1
CC50 [3]: 92.6 µM (active) | EC50 [5]: > 120 µM (not active) | EC50 [6]: > 120 µM (not active) | EC50 (H4): > 120 µM (not active)

COc1ccc(S(=O)(=O)N(C)C[C@H]2OCCCC[C@H](C)Oc3ccc(N(C)C)cc3C(=O)N([C@H](C)CO)C[C@@H]2C)cc1
AC50 [2]: 9.32 µM (active)

COc1ccc(NC(=O)Nc2ccc3c(c2)N(C)C(=O)CS3)cc1Cl
AC50 [1]: > 70 µM (inactive) | AC50 [7]: 11.8 µM (active) | AC50 [8]: 31.1 µM (active) | AC50 [9]: 3.37 µM (active)

CN(C[C@H](Cc1ccccc1)N(C[C@H](Cc1ccccc1)N(CC1(c2ccccc2)CC1)N=O)N=O)N=O
AC50 [1]: 3.05 µM (active) | AC50 [7]: 7.28 µM (active) | AC50 [8]: 2.98 µM (active) | AC50 [9]: 3.53 µM (active)

COc1cc(-c2ncc3ccccn23)cc(OC)c1OC
CC50 [3]: 100 µM (active) | IC50 [4]: 123 µM (active)

CCn1c(SCc2ccccc2Cl)nc2ccccc21
IC50 [10]: 17.5 µM (active) | IC50 (Caspase-3): 40.6 µM (active) | EC50 [11]: 16.5 µM (active) | EC50 (Streptokinase A): 21.4 µM (active) | IC50 [12]: 29.3 µM (active) | IC50 [13]: 11.3 µM (active) | EC50 (Streptococcus): > 150 µM (not active)

Cc1ccccc1CN(C)C[C@H]1Oc2c(NC(=O)c3ccncc3)cccc2C(=O)N([C@@H](C)CO)C[C@@H]1C
AC50 [2]: 0.0559 µM (active)

Cc1ccccc1S(=O)(=O)N1C[C@H]2[C@H]3C(=O)N(C4CCCCC4)C(=O)[C@H]3CC(=O)[C@H]2[C@@H]1c1ccc(Cl)cc1
AC50 [1]: 1.2 µM (active) | AC50 [7]: 2.81 µM (active) | AC50 [8]: 0.396 µM (active) | AC50 [9]: 0.874 µM (active)

Cc1ccccc1-c1nc2sc3c(c2c(=O)o1)CCC3
IC50 [10]: 3.42 µM (active) | IC50 (Caspase-3): 1.73 µM (active) | IC50 [12]: > 100 µM (inactive) | IC50 [13]: 2.23 µM (active)
